Data taken from paper PMC12749748, “Chemically-induced degradation of the endoplasmic-reticulum stress sensor IRE1 by a VHL-recruiting chimera” (Nature Communications, 2025).
“Also recorded” adds a separate entry of the source.

What was measured:
Format in all cases: cell-based
[1] = system: AMO1 cells; assay: Global proteomics of protein depletion in AMO1 cells; conditions: 1 µM, 4 h
Protocol: One milligram of protein lysate in denaturing buffer (8 M Urea, 20 mM HEPES, pH 8.0) was reduced (5 mM dithiothreitol (DTT), 45 min at 37 °C), alkylated (15 mM iodoacetamide (IAA), 20 min at room temperature in the dark), and quenched (5 mM DTT, 15 min at room temperature in the dark). Proteins were pelleted by chloroform-methanol precipitation. The resulting pellet was resuspended in denaturing buffer, diluted to 4 M Urea, and digested for 4 h at 37 °C with lysyl-endopeptidase (Wako) at an enzyme to protein ratio of 1:100. The sample was further diluted to 1.3 M Urea and subjected to overnight enzymatic digestion at 37 °C with sequencing grade trypsin (Promega, enzyme: protein ratio = 1:50). Resultant peptides were acidified with 20% Trifluoroacetic acid (TFA, 1% final concentration), centrifuged at 18,000 × g for 15 min, and desalted using a Sep-Pak C18 column (Waters). […]
For the global proteome, LC-MS/MS analysis was performed by injecting 1 μL of each fraction on an Orbitrap Eclipse mass spectrometer (Thermo Fisher) coupled to a Dionex Ultimate 3000 RSLC (Thermo Fisher) employing a 25 cm IonOpticks Aurora Series column (IonOpticks, Parkville, Australia) with a gradient of 2% to 30% buffer B (98% ACN, 2% H2O with 0.1% FA, flow rate = 300 nL/min). Global proteome samples were analyzed with a total run time of 95 min. […]

[2] = system: AMO1 cells; assay: Incucyte cell confluency, AMO1 cells; conditions: AMO1 shIRE1 cells, titration
Protocol: For non-adherent AMO1, KMS27, and OPM2 cells, cells were plated at 5000 cells/well in ultra-low attachment (ULA) 96-well plates (Costar, #7007) and centrifuged at 600 × g for 5 min for spheroid formation. For adherent U2OS and Colo201 cells, 2000 cells/well were seeded in a clear flat-bottom 96-well plate (Costar, #3595). Treatments were added at the time of cell seeding, and cells were cultured in complete RPMI media to a final volume of 200 µL/well. Cultures were maintained at 37 °C throughout the duration of the experiment. Cell confluency was tracked using the Incucyte live-cell imaging system (Sartorius S3). Picture frames were captured every 4 h with a 4× objective, and cell confluency (%) from the total well area as a function of time was calculated using the Incucyte software (version 2023 A Rev2).

[3] = molecular target: IRE1 (Homo sapiens, UniProt O75460); assay: Immunoblot of endogenous IRE1 depletion in AMO1 cells; set-up: Immunoblot (IB) analysis of endogenous IRE1 depletion in AMO1 cells; endogenous in cells; host or cells: AMO1
Protocol: Cells were lysed in buffer containing 20 mM HEPES 7.2, 150 mM NaCl, and 1% Triton X-100, supplemented with fresh protease and phosphatase inhibitors (Invitrogen, #78440), cleared by centrifugation at 12,000 × g for 10 min, and analyzed by BCA protein assay (Thermo Fisher Scientific, #23227). Equal protein amounts were loaded, separated by SDS-PAGE, electrotransferred to nitrocellulose membranes using the iBLOT2 system (Invitrogen), and blocked in 5% nonfat milk solution for 60 min. Membranes were probed with primary antibodies at 1:1000 dilution in 5% milk at 4 °C overnight. Signal was detected using appropriate horseradish peroxidase (HRP)-conjugated secondary antibodies at 1:10,000 in 5% milk at room temperature for 1–2 h. Bands were visualized by the Azure 600 western blot imaging system (Azure Biosystems). For in vitro ubiquitination assays performed with Me-Ub, bands were visualized by the Odyssey CLx Imager (LI‑COR) after incubating the blots with the IRDye 800CW (LI-COR) secondary antibodies at 1:10,000 in Intercept Blocking Buffer (LI-COR) at room temperature for 1–2 h.

[4] = AMO1 cells, 17 h, immunoblot quantification, n = 4, mean ± SEM

Sequence of IRE1 (O75460 19-977): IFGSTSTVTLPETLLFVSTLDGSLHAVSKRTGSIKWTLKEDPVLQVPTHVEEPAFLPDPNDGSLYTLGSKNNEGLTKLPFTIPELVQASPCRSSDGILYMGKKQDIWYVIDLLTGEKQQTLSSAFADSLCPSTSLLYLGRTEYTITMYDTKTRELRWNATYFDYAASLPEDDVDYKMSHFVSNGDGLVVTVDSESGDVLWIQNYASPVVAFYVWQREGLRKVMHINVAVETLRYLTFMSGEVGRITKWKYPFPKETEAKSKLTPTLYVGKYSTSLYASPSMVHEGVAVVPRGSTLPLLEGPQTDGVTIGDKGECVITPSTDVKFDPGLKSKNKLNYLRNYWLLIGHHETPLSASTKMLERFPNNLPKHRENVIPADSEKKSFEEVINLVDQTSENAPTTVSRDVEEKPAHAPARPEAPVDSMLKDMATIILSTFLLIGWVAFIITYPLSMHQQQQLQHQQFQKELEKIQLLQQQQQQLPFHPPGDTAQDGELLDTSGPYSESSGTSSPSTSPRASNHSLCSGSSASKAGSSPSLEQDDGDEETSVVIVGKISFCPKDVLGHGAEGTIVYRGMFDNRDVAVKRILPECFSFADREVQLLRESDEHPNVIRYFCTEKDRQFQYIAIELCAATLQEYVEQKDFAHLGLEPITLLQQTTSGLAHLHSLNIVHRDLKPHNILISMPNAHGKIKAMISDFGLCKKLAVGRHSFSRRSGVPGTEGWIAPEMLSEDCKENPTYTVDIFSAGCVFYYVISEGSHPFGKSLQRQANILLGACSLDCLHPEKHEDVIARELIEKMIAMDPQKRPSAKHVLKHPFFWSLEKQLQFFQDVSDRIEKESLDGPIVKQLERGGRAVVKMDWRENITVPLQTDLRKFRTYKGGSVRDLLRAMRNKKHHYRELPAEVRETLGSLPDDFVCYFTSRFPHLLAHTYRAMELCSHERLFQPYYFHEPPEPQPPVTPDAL

Q: Cc1ncsc1-c1ccc(CNC(=O)[C@@H]2C[C@@H](O)CN2C(=O)[C@@H](NC(=O)CCCCN2CCN([C@H]3CC[C@H](Nc4ncc5ccc(=O)n(C(C)C)c5n4)CC3)CC2)C(C)(C)C)cc1 [G6374] was tested. Which “protein depletion by global proteomics, G6374 versus G2642” value [1] did it give?
A: IRE1 as the most substantially and significantly depleted protein target

Q: What about the “growth inhibition (cell confluency)” value [2] of the same molecule?
A: concentration-dependent growth inhibition

Q: What about the “IRE1 depletion under ER stress (thapsigargin or tunicamycin)” value ([3]; AMO1 and KMS27 cells, G6374 3 µM, 2 hr, Tg 100 nM or Tm 5 µg/ml, 6 hr) of the same molecule?
A: did not encumber G6374-driven IRE1 depletion

Q: And the “IRE1 depletion over a time course” value ([3]; AMO1 cells, 1 µM, 0-8 h)?
A: reaches near maximum levels by 4 hr; also recorded: near complete IRE1 depletion by 4 h

Q: And the DC50 [3, 4]?
A: 40 nM

Q: And the Dmax [3, 4]?
A: 93%
